Test results: US20230218496A1, “IONIC LIQUID AS AN ANTIPERSPIRANT” (Novigo GmbH, priority 2020, published 2023)

Key:
[1] = In vitro evidence on toxicity, skin corrosion, mutagenicity, carcinogenicity
[2] = target: BSA (bovine serum albumin) (Bos taurus, UniProt P02769); assay: Protein precipitation in vitro, BSA gelling experiments; conditions: composition in water
From the text: Therefore, the ability of a composition comprising 1-hexylpyridinium chloride in water for protein precipitation was investigated in vitro using BSA (bovine serum albumin) gelling experiments. An aqueous solution of aluminum chloride hexahydrate was used as a positive control.

[3] = Antiperspirant effect and side effects over the active ingredient concentration range; assay type: in vivo
[4] = system: Staphylococcus epidermidis DSM 20044, ATCC 14990; assay: Minimum inhibitory concentration, dilution series in suspension; assay type: cell-based; conditions: 1-hexylpyridinium chloride in water
From the text: (§1) Corynebacteria and germs of the genus Staphylococcus epidermidis are mainly found in the underarm area. Therefore, the bacteriostatic effect of a composition comprising 1-hexylpyridinium chloride in water was investigated in vitro on the relevant test microbes. The test microbes used were Staphylococcus epidermidis with the identifier DSM 20044, ATCC 14990, Corynebacterium xerosis with the identification DSM 20743, ATCC 373 and Kocuria rhizophila of the type Micrococcus with the identifier DSM 11926. Using a series of dilutions of the substance to be tested, the minimum inhibitory concentration was determined at which growth of the bacteria in suspension could no longer be detected. […] Thus, an antimicrobial effect on odor-forming microorganisms and thus a deodorizing effect of the active ingredient 1-hexylpyridinium chloride is also shown in vitro.

[5] = system: Corynebacterium xerosis DSM 20743, ATCC 373; assay: as above; assay type: cell-based; conditions: 1-hexylpyridinium chloride in water
From the text: as §1

[6] = Skin compatibility, epicutaneous test (occlusive patch); assay type: in vivo, human; conditions: 5% and 7.5% of the active ingredient
From the text: The aim of examining skin compatibility, the so-called epicutaneous test, is to rule out primary skin irritation caused by a test product and/or existing sensitization to the test product. The test substances are applied occlusively to the skin at suitable concentrations. The epicutaneous contact with the test product is limited in terms of location and time and is intensified by occlusion conditions, so that the absorption of the test substances is favored. The skin was examined after 24, 48 and 72 hours. The occlusion conditions are used to allow a potential allergen to more easily penetrate through the stratum corneum to reach the effector cells that could elicit a local immune system response. A positive response occurs when a threshold level of irritation/sensitization is exceeded. A positive reaction to a correctly applied epicutaneous test is considered evidence of primary irritation by the test substance, but not necessarily evidence of sensitization. For the test, 20 mg or 20 μL of the test product is applied undiluted to a ready-made plaster, which is applied and fixed to the clinically healthy skin of the upper back. The test plaster is removed after an exposure time of 24 hours and for the first time assessed dermatologically and allergologically. […] The test reaction was evaluated for the first time 30 minutes after removal of the test plaster under standardized lighting. […]

Sequence of BSA (bovine serum albumin) (P02769 25-607): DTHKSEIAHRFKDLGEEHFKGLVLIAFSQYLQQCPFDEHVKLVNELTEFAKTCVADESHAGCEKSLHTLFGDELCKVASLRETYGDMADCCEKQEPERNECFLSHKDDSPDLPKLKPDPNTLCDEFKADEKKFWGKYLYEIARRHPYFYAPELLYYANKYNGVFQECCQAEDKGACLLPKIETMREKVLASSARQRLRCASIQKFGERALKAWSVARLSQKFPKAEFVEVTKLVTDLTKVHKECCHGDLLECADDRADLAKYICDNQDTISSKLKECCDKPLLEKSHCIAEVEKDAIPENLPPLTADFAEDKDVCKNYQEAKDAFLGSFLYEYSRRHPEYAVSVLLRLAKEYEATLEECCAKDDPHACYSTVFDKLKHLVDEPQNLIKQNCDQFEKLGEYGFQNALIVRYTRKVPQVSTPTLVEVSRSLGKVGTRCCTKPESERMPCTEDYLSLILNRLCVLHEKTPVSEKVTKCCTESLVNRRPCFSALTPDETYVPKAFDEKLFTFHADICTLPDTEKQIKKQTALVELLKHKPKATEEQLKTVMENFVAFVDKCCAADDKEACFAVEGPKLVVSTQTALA

Compound: CCCCCC[n+]1ccccc1.[Cl-] [1-hexylpyridinium chloride]
- mutagenicity or carcinogenicity [1]: no mutagenicity or carcinogenicity
- skin corrosion [1]: no skin corrosion
- toxicity [1]: low toxicity
- gelation of BSA [2]: leads to gelation of BSA
- serious side effects ([3]; active ingredient concentration 0.5% by weight up to 25% by weight): serious side effects were ruled out
- antiperspirant effect ([3]; active ingredient concentration 0.5% by weight up to 30% by weight): good antiperspirant effect
- minimum inhibitory concentration (bacteriostatic effect) [4]: 0.4%
- minimum inhibitory concentration (inhibition of bacterial growth), final preparation concentration [5]: 0.2%
- in vivo skin compatibility [6]: Good in vivo skin compatibility
